Results: patent US20230085307A1, “PYRIDAZINONE COMPOUND AND HERBICIDE” (NISSAN CHEMICAL CORPORATION, priority 2019, published 2023)

The compounds below were run on redroot pigweed (assay: Test Example 5: herbicidal effect by foliage application, plastic box (Table 20, symbol N)). Settings: foliage application, 320 g/ha, evaluated three weeks after application.
Type: in vivo, redroot pigweed (Amaranthus retroflexus)
In short: (§1)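 Foliar spray test: emulsion formulation diluted in water to a set application rate, sprayed onto 14-day-old plants raised in diluvial soil at 25° C to 30° C under glass. Both herbicidal effect and crop effect rated visually three weeks later.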

Row | SMILES | herbicidal effect on N: redroot pigweed (criteria 0-5)
1 | Cc1nn(C)c(=O)c(-c2c(-c3cccc(OC(C)(C)C)c3)sc3ccc(F)cc23)c1O [2-223] | 4 (Herbicidal rate of 70% or more and less than 90%)
2 | CCCC(=O)Oc1c(C)nn(C)c(=O)c1-c1c(-c2ccc(C(F)F)cc2)sc2ccc(F)cc12 [2-228] | 5 (Herbicidal rate of 90% or more (almost completely withered))

What follows are compounds tested on lambsquarters (assay: Test Example 5: herbicidal effect by foliage application, plastic box (Table 20, symbol O)). Settings: foliage application, 320 g/ha, evaluated three weeks after application.
Type: in vivo, lambsquarters (Chenopodium album)
In short: as §1

Row | SMILES | herbicidal effect on O: lambsquarters (criteria 0-5)
3 | Cc1nn(C)c(=O)c(-c2c(-c3cccc(OC(C)(C)C)c3)sc3ccc(F)cc23)c1O [2-223] | 4 (Herbicidal rate of 70% or more and less than 90%)
4 | CCCC(=O)Oc1c(C)nn(C)c(=O)c1-c1c(-c2ccc(C(F)F)cc2)sc2ccc(F)cc12 [2-228] | 5 (Herbicidal rate of 90% or more (almost completely withered))

The compounds below were run on blackgrass (assay: Test Example 4: herbicidal effect by soil treatment (Table 19, symbol J)). Settings: amount of applied herbicide 320 g/ha.
Type: in vivo, blackgrass (Alopecurus myosuroides)
In short: (§2)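 Herbicidal effect was rated 3 weeks after treatment, using the scoring criteria of an earlier test. The compound, formulated as an emulsion and diluted in water to a set herbicide amount, had been sprayed uniformly on soil over freshly sown seeds. Growth took place in a greenhouse at 25° C. to 30° C.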

Row | SMILES | herbicidal effect on J: blackgrass
5 | Cc1nn(C)c(=O)c(-c2c(-c3cccc(OC(C)(C)C)c3)sc3ccc(F)cc23)c1O [2-223] | 0 (Herbicidal rate of 5% or less (almost no effect))
6 | CCCC(=O)Oc1c(C)nn(C)c(=O)c1-c1c(-c2ccc(C(F)F)cc2)sc2ccc(F)cc12 [2-228] | 0 (Herbicidal rate of 5% or less (almost no effect))

These compounds were tested on late watergrass (assay: Test Example 1: herbicidal activity, application before weed generation under submerged conditions (Table 16, symbol A)). Settings: 320 g/ha applied herbicide.
Type: in vivo, late watergrass (Echinochloa oryzicola)
In short: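 Submerged Wagner pots (alluvial soil, 4 cm water) sown with weed seeds and planted with 2.5-leaf rice seedlings; emulsifiable concentrate diluted in water applied to water surface on sowing day. Held in greenhouse at 25-30 °C; injury scored 0-5 by herbicidal rate after three weeks.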

Row | SMILES | Herbicidal effect on A: late watergrass (grade 0-5)
7 | Cc1nn(C)c(=O)c(-c2c(-c3cccc(OC(C)(C)C)c3)sc3ccc(F)cc23)c1O [2-223] | 4 (Herbicidal rate of 70% or more and less than 90%)
8 | CCCC(=O)Oc1c(C)nn(C)c(=O)c1-c1c(-c2ccc(C(F)F)cc2)sc2ccc(F)cc12 [2-228] | 5 (Herbicidal rate of 90% or more (almost completely withered))

These compounds were tested on Chinese sprangletop (assay: Test Example 3: herbicidal effect by foliage application, Wagner pot (Table 18, symbol D)). Settings: amount of applied herbicide 320 g/ha.
Type: in vivo, chinese sprangletop (Leptochloa chinensis)
In short: (§3)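 Plants were sown in alluvial soil held under 0.1–0.5 cm standing water and grown 14 days in a greenhouse at 25–30 °C. An emulsifiable formulation, water-diluted to the set dose, was then sprayed onto the foliage, and effects were scored three weeks later using previously defined criteria.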

Row | SMILES | herbicidal effect on D: Chinese sprangletop
9 | Cc1nn(C)c(=O)c(-c2c(-c3cccc(OC(C)(C)C)c3)sc3ccc(F)cc23)c1O [2-223] | 3 (Herbicidal rate of 40% or more and less than 70%)
10 | CCCC(=O)Oc1c(C)nn(C)c(=O)c1-c1c(-c2ccc(C(F)F)cc2)sc2ccc(F)cc12 [2-228] | 4 (Herbicidal rate of 70% or more and less than 90%)

Each compound was assayed on southern crabgrass (assay: Test Example 4: herbicidal effect by soil treatment (Table 19, symbol F)). Settings: amount of applied herbicide 320 g/ha.
Type: in vivo, southern crabgrass (Digitaria ciliaris)
In short: as §2

Row | SMILES | herbicidal effect on F: southern crabgrass
11 | Cc1nn(C)c(=O)c(-c2c(-c3cccc(OC(C)(C)C)c3)sc3ccc(F)cc23)c1O [2-223] | 4 (Herbicidal rate of 70% or more and less than 90%)
12 | CCCC(=O)Oc1c(C)nn(C)c(=O)c1-c1c(-c2ccc(C(F)F)cc2)sc2ccc(F)cc12 [2-228] | 2 (Herbicidal rate of 20% or more and less than 40%)

What follows are compounds tested on persian speedwell (assay: Test Example 4: herbicidal effect by soil treatment (Table 19, symbol R)). Settings: amount of applied herbicide 320 g/ha.
Type: in vivo, Persian speedwell (Veronica persica)
In short: as §2

Row | SMILES | herbicidal effect on R: persian speedwell
13 | Cc1nn(C)c(=O)c(-c2c(-c3cccc(OC(C)(C)C)c3)sc3ccc(F)cc23)c1O [2-223] | 4 (Herbicidal rate of 70% or more and less than 90%)
14 | CCCC(=O)Oc1c(C)nn(C)c(=O)c1-c1c(-c2ccc(C(F)F)cc2)sc2ccc(F)cc12 [2-228] | 5 (Herbicidal rate of 90% or more (almost completely withered))

Each compound was assayed on velvetleaf (assay: Test Example 4: herbicidal effect by soil treatment (Table 19, symbol M)). Settings: amount of applied herbicide 320 g/ha.
Type: in vivo, velvetleaf (Abutilon theophrasti)
In short: as §2

Row | SMILES | herbicidal effect on M: velvetleaf
15 | Cc1nn(C)c(=O)c(-c2c(-c3cccc(OC(C)(C)C)c3)sc3ccc(F)cc23)c1O [2-223] | 1 (Herbicidal rate of 5% or more and less than 20%)
16 | CCCC(=O)Oc1c(C)nn(C)c(=O)c1-c1c(-c2ccc(C(F)F)cc2)sc2ccc(F)cc12 [2-228] | 3 (Herbicidal rate of 40% or more and less than 70%)

What follows are compounds tested on late watergrass (assay: Test Example 2: herbicidal activity, application during weed generation under submerged conditions (Table 17, symbol A)). Settings: AAH 320 g/ha; application during weed generation, submerged conditions.
Type: in vivo, late watergrass (Echinochloa oryzicola)
In short: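 Herbicide emulsion, diluted with water to the chosen amount, is applied onto 4 cm floodwater over alluvial soil where the weeds were co-sown and raised at 25–30° C. Application timing: 1–2 leaves. Assessment: three weeks afterwards.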

Row | SMILES | herbicidal effect rating, A: late watergrass
17 | Cc1nn(C)c(=O)c(-c2c(-c3cccc(OC(C)(C)C)c3)sc3ccc(F)cc23)c1O [2-223] | 3 (Herbicidal rate of 40% or more and less than 70%)
18 | CCCC(=O)Oc1c(C)nn(C)c(=O)c1-c1c(-c2ccc(C(F)F)cc2)sc2ccc(F)cc12 [2-228] | 3 (Herbicidal rate of 40% or more and less than 70%)

What follows are compounds tested on Italian ryegrass (assay: Test Example 4: herbicidal effect by soil treatment (Table 19, symbol K)). Settings: amount of applied herbicide 320 g/ha.
Type: in vivo, Italian ryegrass (Lolium multiflorum)
In short: as §2

Row | SMILES | herbicidal effect on K: Italian ryegrass
19 | Cc1nn(C)c(=O)c(-c2c(-c3cccc(OC(C)(C)C)c3)sc3ccc(F)cc23)c1O [2-223] | 0 (Herbicidal rate of 5% or less (almost no effect))
20 | CCCC(=O)Oc1c(C)nn(C)c(=O)c1-c1c(-c2ccc(C(F)F)cc2)sc2ccc(F)cc12 [2-228] | 0 (Herbicidal rate of 5% or less (almost no effect))

What follows are compounds tested on windgrass (assay: Test Example 4: herbicidal effect by soil treatment (Table 19, symbol L)). Settings: amount of applied herbicide 320 g/ha.
Type: in vivo, windgrass (Apera spica-venti)
In short: as §2

Row | SMILES | herbicidal effect on L: windgrass
21 | Cc1nn(C)c(=O)c(-c2c(-c3cccc(OC(C)(C)C)c3)sc3ccc(F)cc23)c1O [2-223] | 0 (Herbicidal rate of 5% or less (almost no effect))
22 | CCCC(=O)Oc1c(C)nn(C)c(=O)c1-c1c(-c2ccc(C(F)F)cc2)sc2ccc(F)cc12 [2-228] | 0 (Herbicidal rate of 5% or less (almost no effect))

What follows are compounds tested on lambsquarters (assay: Test Example 4: herbicidal effect by soil treatment (Table 19, symbol O)). Settings: amount of applied herbicide 320 g/ha.
Type: in vivo, lambsquarters (Chenopodium album)
In short: as §2

Row | SMILES | herbicidal effect on O: lambsquarters
23 | Cc1nn(C)c(=O)c(-c2c(-c3cccc(OC(C)(C)C)c3)sc3ccc(F)cc23)c1O [2-223] | 3 (Herbicidal rate of 40% or more and less than 70%)
24 | CCCC(=O)Oc1c(C)nn(C)c(=O)c1-c1c(-c2ccc(C(F)F)cc2)sc2ccc(F)cc12 [2-228] | 4 (Herbicidal rate of 70% or more and less than 90%)

Each compound was assayed on Italian ryegrass (assay: Test Example 5: herbicidal effect by foliage application, plastic box (Table 20, symbol K)). Settings: foliage application, 320 g/ha, evaluated three weeks after application.
Type: in vivo, Italian ryegrass (Lolium multiflorum)
In short: as §1

Row | SMILES | herbicidal effect on K: Italian ryegrass (criteria 0-5)
25 | Cc1nn(C)c(=O)c(-c2c(-c3cccc(OC(C)(C)C)c3)sc3ccc(F)cc23)c1O [2-223] | 1 (Herbicidal rate of 5% or more and less than 20%)
26 | CCCC(=O)Oc1c(C)nn(C)c(=O)c1-c1c(-c2ccc(C(F)F)cc2)sc2ccc(F)cc12 [2-228] | 3 (Herbicidal rate of 40% or more and less than 70%)

The compounds below were run on barnyard grass (assay: Test Example 3: herbicidal effect by foliage application, Wagner pot (Table 18, symbol H)). Settings: amount of applied herbicide 320 g/ha.
Type: in vivo, barnyard grass (Echinochloa crus-galli)
In short: as §3

Row | SMILES | herbicidal effect on H: barnyard grass
27 | Cc1nn(C)c(=O)c(-c2c(-c3cccc(OC(C)(C)C)c3)sc3ccc(F)cc23)c1O [2-223] | 5 (Herbicidal rate of 90% or more (almost completely withered))
28 | CCCC(=O)Oc1c(C)nn(C)c(=O)c1-c1c(-c2ccc(C(F)F)cc2)sc2ccc(F)cc12 [2-228] | 5 (Herbicidal rate of 90% or more (almost completely withered))

Each compound was assayed on blackgrass (assay: Test Example 5: herbicidal effect by foliage application, plastic box (Table 20, symbol J)). Settings: foliage application, 320 g/ha, evaluated three weeks after application.
Type: in vivo, blackgrass (Alopecurus myosuroides)
In short: as §1

Row | SMILES | herbicidal effect on J: blackgrass (criteria 0-5)
29 | Cc1nn(C)c(=O)c(-c2c(-c3cccc(OC(C)(C)C)c3)sc3ccc(F)cc23)c1O [2-223] | 0 (Herbicidal rate of 5% or less (almost no effect))
30 | CCCC(=O)Oc1c(C)nn(C)c(=O)c1-c1c(-c2ccc(C(F)F)cc2)sc2ccc(F)cc12 [2-228] | 3 (Herbicidal rate of 40% or more and less than 70%)

The compounds below were run on velvetleaf (assay: Test Example 5: herbicidal effect by foliage application, plastic box (Table 20, symbol M)). Settings: foliage application, 320 g/ha, evaluated three weeks after application.
Type: in vivo, velvetleaf (Abutilon theophrasti)
In short: as §1

Row | SMILES | herbicidal effect on M: velvetleaf (criteria 0-5)
31 | Cc1nn(C)c(=O)c(-c2c(-c3cccc(OC(C)(C)C)c3)sc3ccc(F)cc23)c1O [2-223] | 5 (Herbicidal rate of 90% or more (almost completely withered))
32 | CCCC(=O)Oc1c(C)nn(C)c(=O)c1-c1c(-c2ccc(C(F)F)cc2)sc2ccc(F)cc12 [2-228] | 5 (Herbicidal rate of 90% or more (almost completely withered))
